Laboratory results reported in US20240390351A1, “MYCOBACTERIUM ABSCESSUS GROWTH INHIBITOR AND MODEL” (priority 2021, published 2024).
Converted amounts (≈) assume the structure as drawn.

Key:
[1] = target: T1, Mabε (M. abscessus F-ATP synthase subunit ε) (Mycobacteroides abscessus, UniProt B1MLW3); test: NMR titration of Mabε with MgATP; assay type: binding, Mycobacterium abscessus; details: molar ratio of Mabε to MgATP of 1:10
T1 construct: made in house; host or cells: Escherichia coli C41 (DE3)
Excerpt: In thermophilic Bacillus PS3, Bacillus subtilis and chloroplasts, the C terminus of E is described as a mobile regulatory element, altering its conformation in response to nucleotide conditions or the ion motive force (IMF). ATP binding in E of thermophilic Bacillus PS3 and Bacillus subtilis forces the C-terminal helices into a hairpin conformation, which extends in the absence of the nucleotide, leading to an inhibited ATP hydrolysis state. Here, we used the high-quality NMR spectra of Mabε and performed NMR titration experiments in the presence of MgATP (molar ratio of Mabε to MgATP of 1:10). […] ATP binding of the M. smegmatis subunit E was also not observed in the recent cryo-EM structure of the M. smegmatis F-ATP synthase (Guo, H. et al., Nature 2021, 589, 143-147), underlining that the mycobacterial E subunits are not regulated via nucleotide binding to this rotary subunit.

[2] = target: T1, Mabε (M. abscessus F-ATP synthase subunit ε); test: 1H-15N-HSQC NMR titration and R2 relaxation of Mabε with compound; assay type: binding, Mycobacterium abscessus; details: 1:5 molar ratio of Mabε and Ep1MabF1; residues V9, A10, R13, E14, G68-I72, V77, I79-A81
Description: All NMR experiments were carried out on a BrukerAvance 700-MHz spectrometer, which was equipped with a cryoprobe at 298 K.
To confirm that Mabε is Ep1MabF1's target, a ^1H-^15N-HSQC NMR titration experiment in the presence (1:5 molar ratio of Mabε and Ep1MabF1) and absence of the compound was performed. Significant changes in chemical shift were (CSP >0.15 ppm) detected for the backbone resonances of amino acids V9, A10, R13, E14, G68-172, V77 and 179-A81 (FIGS. 14C and 15). […] In addition, we measured R2 relaxation data in the presence of Ep1MabF1 and calculated the changes of R2 values between the compound-free and compound-bound protein.

[3] = test system: M. abscessus subsp. abscessus ATCC 19977; test: Growth inhibition dose-response assay, broth microdilution in CAMH medium; assay type: cell-based, Mycobacterium abscessus subsp. abscessus; details: Mycobacteroides abscessus, ATCC19977; M. abscessus subsp. abscessus ATCC 19977, CAMH medium; concentration that inhibits 50% of growth; read-out: minimum inhibitory concentration (MIC50), growth inhibition
Description: The M. abscessus subsp. abscessus ATCC 19977 strain was used. The Mab strain was maintained in CAMH broth, which was prepared according to the manufacturer's instructions. The growth inhibition dose-response assay was carried out using the broth microdilution method as described previously (Moreira, W., Aziz, D. B. & Dick T., Front. Microbiol. 2016, 7, 199). The MIC50 reported represents the concentration that inhibits 50% of growth compared with the untreated culture.

[4] = test system: intracellular ATP synthesis of M. abscessus subsp. abscessus; test: Whole-cell ATP measurement (BacTiter-Glo), intracellular ATP synthesis inhibition; assay type: cell-based, Mycobacterium abscessus subsp. abscessus; details: Mycobacteroides abscessus, CAMH medium, 24 h, read-out: inhibitory concentration (IC50) for intracellular ATP levels
Description: Clear 96-well flat-bottom cell culture plates (Nunc) were filled with 100 μL of CAMH medium in each well. The compound was added to the first well in each row to create two times the desired highest final concentration. Subsequently, a […] twofold serial dilution was carried out starting from the first well in each row. Mab, which was grown to mid-exponential phase, was diluted to an optical density at 600 nm (OD600) of 0.1; 100 μL of the diluted culture was added to each well to create a final OD600 of 0.05 in all the wells. The plates were incubated at 37° C. on a standing incubator for 24 h. At the end of the incubation period, the samples were measured for their intrabacterial ATP content by employing the BacTiter-Glo microbial cell viability assay (Promega), which was carried out according to the manufacturer's instructions as described previously (Hotra, A. et al., Angew. Chem. Int. Ed. Engl. 2020, 59, 13295-13304). […] Luminescence was measured with Cytation 5 multi-mode reader after 10 min of incubation of the plate in the dark at room temperature. The background luminescence reading was subtracted from the luminescence readings of all the samples. The ATP amount is directly proportional to the relative luminescence units. […]
The similar IC50- and MIC50 values determined, indicate that ATP synthesis catalyzed by the F-ATP synthase is the major cause of cell growth inhibition.

T1 sequence (B1MLW3 2-121): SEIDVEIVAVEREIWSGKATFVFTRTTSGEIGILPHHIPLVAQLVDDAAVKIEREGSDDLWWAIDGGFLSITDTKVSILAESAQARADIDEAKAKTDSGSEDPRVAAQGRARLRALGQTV

Structure (SMILES)	chemical shift change of Mabε in 15N HSQC after addition of nucleotide (binding) [1]	chemical shift perturbation (CSP) of Mabε backbone resonances [2] [ppm]	MIC50 [3] [µM]	IC50 [4] [µM]
Nc1ncnc2c1ncn2[C@@H]1O[C@H](COP(=O)(O)OP(=O)([O-])OP(=O)([O-])O)[C@@H](O)[C@H]1O.[Mg+2] [MgATP]	no obvious chemical shift was observed			
Cc1cccc(Cc2nc3ccccc3n2CCC(=O)NCc2ccccn2)c1 [Ep1MabF1, 3-(2-(3-methylbenzyl)-1H-benzo[d]imidazol-1-yl)-N-(pyridin-2-ylmethyl)propanamide]		> 0.15	420 ± 14 (≈ 161 µg/mL)	600 ± 30
